The values below come from patent US7569724B2, “Carbamic acid compounds comprising an amide linkage as HDAC inhibitors” (Topotarget UK Limited, priority 2000, dated 2009).

Series [1] relates to K11 HPV E7 transformed human keratinocyte line. Nature of the series: Secondary assay: cell proliferation WST-1, K11. The format is cell-based. The note with it: for IC50: Homo sapiens, Keratinocyte, read-out: Cell Proliferation Inhibition WST-1 (IC50 unless otherwise specified) K11. As to the method: (§1) Compounds with HDAC inhibition activity, as determined using the primary assay, were subsequently evaluated using secondary cell-based assays. The following cell lines were used:
K11—HPV E7 transformed human keratinocyte line provided by Pidder Jansen-Duerr, Institut für Biomedizinische Alternsforschung, Innsbruck, Austria.
(§2) Cells were plated in 96-well plates at 3-10×10^3 cells/well in 100 μL of culture medium. The following day, different concentrations of candidate compounds were added and the cells incubated at 37° C. for 48 h. Subsequently, 10 μL/well of WST-1 reagent was added and the cells reincubated for 1 hour. After the incubation time, absorbance was measured.
(§3) WST-1 is a tetrazolium salt which is cleaved to formazan dye by cellular enzymes. An expansion in the number of viable cells results in an increase in the overall activity of mitochondrial dehydrogenases in the sample. This augmentation in the enzyme activity leads to an increase in the amount of formazan dye formed, which directly correlates to the number of metabolically active cells in the culture. The formazan dye produced is quantified by a scanning multiwell spectrophotometer by measuring the absorbance of the dye solution at 450 nm wavelength (reference wavelength 690 nm).
(§4) Percent activity (% activity) in reducing the number of viable cells was calculated for each test compound as: % activity={(S^C−B)/(S^o−B)}×100 wherein S^C denotes signal measured in the presence of the compound being tested, S^o denotes signal measured in the absence of the compound being tested, and B denotes the background signal measured in blank wells containing medium only.
(§5) IC50 values were calculated using the software package Prism 3.0 (GraphPad software Inc., San Diego, Calif.), setting top value at 100 and bottom value at 0.
(In general: Tetrazolium dyes change colour on reduction, which living cells bring about.)

The subject of series [2] is JURKAT human T-cell line. Nature of the series: Secondary assay: cell proliferation WST-1, Jurkat. The format is cell-based. The note with it: 48 h; for IC50: Homo sapiens, read-out: Cell Proliferation Inhibition WST-1 (IC50 unless otherwise specified) Jurkat. The procedure:
as §1
JURKAT—Human T-cell line (ATCC no. TIB-152).
as §2, §3, §4, §5

Series [3] deals with HeLa cells. Nature of the series: Secondary assay: cell proliferation WST-1, HeLa. Type of series: cell-based. The note with it: Homo sapiens, 48 h, read-out: Cell Proliferation Inhibition WST-1 (IC50 unless otherwise specified) HeLa. Summed up:
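Absorbance at 450 nm (reference 690 nm); % activity vs untreated after blank subtraction, IC50 fitted with top 100 and bottom 0.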

Series [4] has as its system HDAC (HeLa cell extract). Nature of the series: Primary assay: deacetylase activity, HeLa cell extract as source of HDAC. The format is biochemical, human. Particulars: HeLa cell extract; for IC50: read-out: HDAC Inhibition (IC50 unless otherwise specified) HeLa; for HDAC Inhibition HeLa, percent: @ 500 nM. A digest of the protocol: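 Crude HeLa extract (freeze-thaw in 60 mM TrisCl pH 8.0, 450 mM NaCl, 30% glycerol) was incubated 1 h at 37° C with a [³H]acetyl-labelled histone H4 N-terminal peptide in 20 mM Tris pH 7.4, 10% glycerol.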

Read-outs that look alike come from different tables or passages of the source.

On to `O=C(CCCCCNC(=O)c1ccc2ccccc2c1)NO` [PX105687, Naphthalene-2-carboxylic acid (5-hydroxycarbamoylpentyl)amide], for which the figures for the IC50 in series [1] (48 h) and in series [2] were 2.6 µM and 0.4 µM, respectively.
What is called melting point is the temperature, or range, at which the solid turns liquid. `O=C(CCCCCCNC(=O)c1ccc2ccccc2c1)NO` [PX106493, Naphthalene-2-carboxylic acid (6-hydroxycarbamoyl-hexyl)-amide]: the melting point was in the range of 136 to 137 °C. The IC50 in series [3] came to 0.36 µM. Besides, in series [1] (48 h), the IC50 amounted to 2.1 µM. Besides, the IC50 in series [2] was 0.2 µM.
In turn, `O=C(CCCCCCCNC(=O)c1ccc2ccccc2c1)NO` [PX106515, Naphthalene-2-carboxylic acid (7-hydroxycarbamoyl-heptyl)-amide] had a melting point of 138 to 139 °C. Besides, in series [4], the IC50 was found to be 0.0277 µM. In addition, the IC50 in series [3] was 3.6 µM. For the same molecule, the IC50 in series [1] (48 h) is 1.8 µM. Moreover, in series [2], the IC50 came to 2.7 µM.
The molecule `O=C(CCCCCCC(=O)NCC(O)c1ccccc1)NO` (stereo not drawn) [PX116226, Octanedioic acid hydroxyamide (2-hydroxy-2-phenyl-ethyl)-amide] returned a melting point of 100 to 102 °C. The IC50 in series [4] was 0.562 µM. The IC50 in series [3] was found to be 4.1 µM. Moreover, in series [1] (48 h), the IC50 is 5.1 µM. In addition, the IC50 in series [2] came to 3.2 µM.
Molecule `CN(CCCCCC(=O)NO)C(=O)/C=C/C=C/c1ccccc1` [PX116234] registered a melting point of 145 to 147 °C. For the same molecule, the IC50 in series [4] amounted to 0.015 µM. Besides, the IC50 in series [3] was 3.4 µM. Besides, the IC50 in series [1] (48 h) is 3.6 µM. Also, in series [2], the IC50 is 2.7 µM.
As to `O=C(/C=C/c1cccn1-c1ccc(Cl)cc1)NCCCCCC(=O)NO` [PX116235, E-3-[1-(4-Chlorophenyl)-1H-pyrrol-2-yl]-N-(5-hydroxycarbamoylpentyl)acrylamide], the IC50 in series [4] stood at 0.01 µM; in series [3], 1 µM; in series [1] (48 h), 2.6 µM; in series [2] it was 0.7 µM.
The molecule `O=C(CCCCCC(=O)NCCc1c[nH]c2ccccc12)NO` [PX117408, N^1-Hydroxy-N^7-[2-(1H-indol-3-yl)ethyl]heptanediamide] displayed a melting point of 140 to 142 °C. Besides, in series [4], the “HDAC Inhibition HeLa, percent” value was 41% @ 500 nM. Further, in series [3], the IC50 turned out to be 11 µM.
`O=C(C#Cc1ccccc1)NCCCCCC(=O)NO` [PX117415, 3-Phenyl-propynoic acid (5-hydroxycarbamoyl-pentyl)-amide] registered a melting point of 112 to 113 °C. Moreover, the IC50 in series [4] came out at 0.062 µM. Further, in series [3], the IC50 worked out at 11 µM.
As to `O=C(CCCCCCC(=O)NCCc1ccccc1)NO` [PX117419, Octanedioic acid hydroxyamide phenethyl-amide], the “HDAC Inhibition HeLa, percent” value in series [4] is reported as 46% @ 500 nM. The figures for the IC50 in series [3], in series [1] (48 h) and in series [2] were 13 µM, above 30 µM and 3.5 µM, respectively.
In turn, `CC(C)c1ccc(C(=O)NCCCCCC(=O)NO)cc1` [PX117421, N-[6-(Hydroxyamino)-6-oxohexyl]-4-isopropylbenzamide] yielded a melting point of 127.5 to 128 °C. The IC50 in series [4] was found to be 0.085 µM. Also, the IC50 in series [3] came out at 3.1 µM.
As to `O=C(/C=C/c1cccc(Oc2ccccc2)c1)NCCCCCC(=O)NO` [PX117430, E-N-(5-Hydroxycarbamoylpentyl)-3-(3-phenoxyphenyl)acrylamide], the IC50 in series [4] is 0.085 µM; in series [3] it was 27 µM; in series [1] (48 h) it was 4.4 µM; in series [2], 4.6 µM.
As for `O=C(C=C(c1ccccc1)c1ccccc1)NCCCCCC(=O)NO` [PX117436, E-N-(5-Hydroxycarbamoylpentyl)-3,3-diphenylacrylamide], the “HDAC Inhibition HeLa, percent” value in series [4] is on record as 64% @ 500 nM. In addition, the figures for the IC50 in series [3], in series [1] (48 h) and in series [2] were 8.5 µM, above 30 µM and 3.5 µM, respectively.
Consider `O=C(/C=C/C=C(c1ccccc1)c1ccccc1)NCCCCCC(=O)NO` [PX117437, 2E-5,5-Diphenylpenta-2,4-dienoic acid (5-hydroxycarbamoylpentyl)amide], for which the “HDAC Inhibition HeLa, percent” value in series [4] is recorded as 95% @ 500 nM. The IC50 was 3.7 µM in series [3], 3.4 µM in series [1] (48 h) and 1.4 µM in series [2].
`O=C(CCCCCNC(=O)CC/C=C\c1ccccc1)NO` [PX117444, (Z)-N-[6-(Hydroxyamino)-6-oxohexyl]-5-phenyl4-pentenamide]: the melting point lay within 101 to 103 °C. The IC50 in series [4] amounted to 0.688 µM. Further, the IC50 in series [3] came to 45 µM.
`C/C(=C\C#Cc1ccccc1)C(=O)NCCCCCC(=O)NO` [PX117451, E-2-Methyl-5-phenylpent-2-en-4-ynoic acid (5-hydroxycarbamoyl-pentyl)amide]: the IC50 in series [4] was 0.031 µM; in series [3] it was 22 µM; in series [1] (48 h) it was 12 µM.
On to `O=C(CCCCCNC(=O)CC=C(c1ccccc1)c1ccccc1)NO` [PX117454, E-4,4-Diphenylbut-3-enoic acid (5-hydroxycarbamoylpentyl)amide], for which the IC50 in series [4] is 0.263 µM; in series [3], 15 µM; in series [1] (48 h), 13 µM; in series [2] it was 3.4 µM.
Consider `O=C(CCCCCC(=O)Nc1ccc2ccccc2c1)NO` [PX117461, Heptanedioic acid hydroxyamide naphthalen-2-ylamide], for which the melting point fell in the range of 142 to 144 °C. Further, the IC50 in series [4] amounted to 0.02 µM. Moreover, the IC50 in series [3] was above 5 µM.
As for `O=C(/C=C/c1cccc(NC(=O)/C=C/C=C/c2ccccc2)c1)NO` [PX117706, N-{3-[(E)-3-(Hydroxyamino)-3-oxo-1-propenyl]phenyl}-5-phenyl-(2E,4E)-pentadienamide], the IC50 is 0.32 µM in series [4], 30 µM in series [3], 6.9 µM in series [1] (48 h) and 1.8 µM in series [2].
For the molecule `O=C(/C=C/c1ccc(Cl)cc1F)NCCCCCC(=O)NO` [PX117719, 3-(4-Chloro-2-fluoro-phenyl)-N-(5-hydroxycarbamoyl-pentyl)-acrylamide], the IC50 in series [3] was 6.8 µM; in series [1] (48 h), 0.94 µM; in series [2], 0.56 µM.
As for `CC(C)(C(=O)NCCCCCC(=O)NO)c1ccc(Cl)cc1` [PX117722, 6-[2-(4-Chlorophenyl)-2-methyl-propionylamino]-hexanoic acid hydroxyamide], the figures for the IC50 in series [4], in series [1] (48 h) and in series [2] were above 0.1 µM, above 30 µM and 8.8 µM, respectively.
In the case of `O=C(CCCCCNC(=O)c1sccc1OCc1ccccc1)NO` [PX117723], the “HDAC Inhibition HeLa, percent” value in series [4] was determined as 46% @ 500 nM. In addition, the IC50 was determined as 10 µM in series [1] (48 h) and 1.2 µM in series [2].
Take `O=C(CCCCCNC(=O)c1ccc(Oc2ccccc2)cc1)NO` [PX117726]: in series [4], the “HDAC Inhibition HeLa, percent” value is reported as 35% @ 500 nM. Besides, the IC50 in series [1] (48 h) amounted to 4.1 µM; in series [2], 9.9 µM.
As for `O=C(CCCCCNC(=O)Cc1ccccc1OCc1ccccc1)NO` [PX117728], the IC50 in series [4] was above 0.1 µM; in series [1] (48 h), 28 µM; in series [2], 4.1 µM.
`C/C(C(=O)NCCCCCC(=O)NO)=C(/C)c1ccccc1` [PX117737, E-2-Methyl-3-phenylbut-2-enoic acid (5-hydroxycarbamoylpentyl)amide]: the IC50 in series [4] was 1.2 µM; in series [3], 32 µM; in series [1] (48 h), above 30 µM; in series [2], 2.2 µM.
`O=C(CCCCCNC(=O)[C@H](Cc1c[nH]c2ccccc12)NC(=O)c1ccc2ccccc2c1)NO` [PX117783, (S)-Naphthalene-2-carboxylic acid [1-(5-hydroxycarbamoyl-pentylcarbamoyl)-2-(1H-indol-3-yl)-ethyl]-amide]: the IC50 came to 0.1 µM in series [4]; 6 µM in series [3]; 9.7 µM in series [1] (K11, 48 h); 1.6 µM in series [2].
Regarding `O=C(CCCCCNC(=O)[C@H](Cc1c[nH]c2ccccc12)NC(=O)CCCNC(=O)OCc1ccccc1)NO` [PX117785, (S)-Carbamic acid, [4-[[2-[[6-(hydroxyamino)-6-oxohexyl]amino]-1-(1H-indol-3-ylmethyl)-2-oxoethyl]amino]-4-oxobutyl]-, phenylmethyl ester], in series [4], the IC50 came out at 0.192 µM. Moreover, the “Cell Proliferation Inhibition WST-1 (IC50 unless otherwise specified) K11” value in series [1] (K11, 48 h) was “Inactive”. In addition, in series [2], the “Cell Proliferation Inhibition WST-1 (IC50 unless otherwise specified) Jurkat” value was “Inactive”.
